From the NIST ThermoML archive (doi:10.1016/j.jct.2008.09.016)

Assay: mn = molality of the nth substance listed, in mol/kg
Settings: 101 kPa, Liquid, Vibrating tube method

O=C([O-])Cc1ccccc1Nc1c(Cl)cccc1Cl.[Na+] [sodium diclofenac] + O
mass density [kg/m3]
Settings | m1 = 0.0075 | m1 = 0.0076 | m1 = 0.01 | m1 = 0.0125 | m1 = 0.0152 | m1 = 0.0175 | m1 = 0.02 | m1 = 0.025
293.15 K | – | 998.331 | 998.385 | 998.445 | 998.525 | 998.605 | 998.695 | 998.911
298.15 K | – | 997.159 | 997.215 | 997.261 | 997.325 | 997.405 | 997.505 | 997.691
303.15 K | – | 995.745 | 995.795 | 995.851 | 995.905 | 995.973 | 996.075 | 996.239
308.15 K | – | 994.125 | 994.175 | 994.221 | 994.294 | 994.351 | 994.436 | 994.595
310.15 K | – | 993.388 | 993.424 | 993.475 | 993.541 | 993.591 | 993.661 | 993.851
313.15 K | 992.285 | – | 992.325 | 992.375 | 992.428 | 992.481 | 992.545 | 992.725
